The source made the active and inactive calls.
How the values were obtained:
Assay type in all cases: functional
[1] = target: T1, Apoptotic protease-activating factor 1 (Homo sapiens, UniProt O14727)
T1 sequence (O14727 whole entry): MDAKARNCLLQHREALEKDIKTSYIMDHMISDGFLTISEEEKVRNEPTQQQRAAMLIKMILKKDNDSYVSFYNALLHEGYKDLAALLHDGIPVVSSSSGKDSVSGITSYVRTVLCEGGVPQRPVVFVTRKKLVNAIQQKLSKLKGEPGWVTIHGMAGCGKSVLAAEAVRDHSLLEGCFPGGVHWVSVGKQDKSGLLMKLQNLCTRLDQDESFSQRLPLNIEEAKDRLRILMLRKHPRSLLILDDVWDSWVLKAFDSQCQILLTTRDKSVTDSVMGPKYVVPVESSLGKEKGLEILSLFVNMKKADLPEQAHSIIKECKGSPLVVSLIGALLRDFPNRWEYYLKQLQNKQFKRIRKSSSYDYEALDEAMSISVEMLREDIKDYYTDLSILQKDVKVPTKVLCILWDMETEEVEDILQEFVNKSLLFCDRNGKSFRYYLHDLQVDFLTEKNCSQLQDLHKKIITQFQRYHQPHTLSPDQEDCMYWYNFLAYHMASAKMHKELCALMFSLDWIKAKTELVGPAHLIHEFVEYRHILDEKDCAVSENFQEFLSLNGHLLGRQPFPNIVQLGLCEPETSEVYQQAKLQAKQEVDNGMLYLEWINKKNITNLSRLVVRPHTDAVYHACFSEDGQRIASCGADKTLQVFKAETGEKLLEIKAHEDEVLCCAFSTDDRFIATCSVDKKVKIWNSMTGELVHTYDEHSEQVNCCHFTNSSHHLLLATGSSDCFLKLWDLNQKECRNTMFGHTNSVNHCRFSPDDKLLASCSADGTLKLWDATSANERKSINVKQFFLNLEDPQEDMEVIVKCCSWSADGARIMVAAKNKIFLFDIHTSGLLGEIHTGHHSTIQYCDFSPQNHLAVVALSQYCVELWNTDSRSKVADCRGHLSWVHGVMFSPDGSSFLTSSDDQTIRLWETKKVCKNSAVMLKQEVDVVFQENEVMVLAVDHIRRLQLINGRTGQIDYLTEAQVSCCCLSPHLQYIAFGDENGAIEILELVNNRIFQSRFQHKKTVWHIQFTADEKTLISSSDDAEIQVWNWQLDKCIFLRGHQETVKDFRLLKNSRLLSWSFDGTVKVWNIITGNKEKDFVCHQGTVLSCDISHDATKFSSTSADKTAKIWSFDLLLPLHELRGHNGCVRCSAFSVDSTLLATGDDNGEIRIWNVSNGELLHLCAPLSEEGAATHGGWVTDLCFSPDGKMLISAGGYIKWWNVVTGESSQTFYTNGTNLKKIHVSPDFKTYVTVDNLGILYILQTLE

Protein RecA = target: T2, Protein RecA (Mycobacterium tuberculosis, UniProt P9WHJ3); experiment: Fluorescence Cell-Free Homogeneous Dose Retest to Identify Inhibitors of RecA-Intein Splicing Activity. [Related pubchem assays (depositor defined):AID2097, AID2223, AID489010, AID492950]
T2 sequence (P9WHJ3 whole entry): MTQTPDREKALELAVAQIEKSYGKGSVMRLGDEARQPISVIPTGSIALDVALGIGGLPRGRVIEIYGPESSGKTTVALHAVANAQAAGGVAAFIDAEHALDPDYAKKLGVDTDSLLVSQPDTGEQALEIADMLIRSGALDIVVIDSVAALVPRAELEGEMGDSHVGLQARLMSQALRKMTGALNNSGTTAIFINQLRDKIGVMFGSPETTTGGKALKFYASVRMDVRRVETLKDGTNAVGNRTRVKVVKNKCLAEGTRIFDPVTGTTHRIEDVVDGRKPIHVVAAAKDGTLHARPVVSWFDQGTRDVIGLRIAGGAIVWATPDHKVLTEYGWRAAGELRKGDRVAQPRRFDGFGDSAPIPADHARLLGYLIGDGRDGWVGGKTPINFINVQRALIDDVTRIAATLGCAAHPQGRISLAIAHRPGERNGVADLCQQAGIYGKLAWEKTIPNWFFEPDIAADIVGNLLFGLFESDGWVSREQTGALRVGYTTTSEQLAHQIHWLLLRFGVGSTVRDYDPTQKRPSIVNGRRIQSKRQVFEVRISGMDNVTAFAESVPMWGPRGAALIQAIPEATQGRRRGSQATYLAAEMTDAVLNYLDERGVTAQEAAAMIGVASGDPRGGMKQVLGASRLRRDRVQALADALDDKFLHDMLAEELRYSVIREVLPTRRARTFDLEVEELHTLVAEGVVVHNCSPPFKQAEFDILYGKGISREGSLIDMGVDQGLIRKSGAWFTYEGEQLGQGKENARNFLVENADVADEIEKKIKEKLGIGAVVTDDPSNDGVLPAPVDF

[2] = target: T3, Replicative DNA helicase DnaB (Mycobacterium tuberculosis, UniProt P9WMR3); experiment: DnaB intein splicing inhibitors, dose response, biochemical, cell-free fluorescence (AID 449749)
T3 sequence (P9WMR3 whole entry): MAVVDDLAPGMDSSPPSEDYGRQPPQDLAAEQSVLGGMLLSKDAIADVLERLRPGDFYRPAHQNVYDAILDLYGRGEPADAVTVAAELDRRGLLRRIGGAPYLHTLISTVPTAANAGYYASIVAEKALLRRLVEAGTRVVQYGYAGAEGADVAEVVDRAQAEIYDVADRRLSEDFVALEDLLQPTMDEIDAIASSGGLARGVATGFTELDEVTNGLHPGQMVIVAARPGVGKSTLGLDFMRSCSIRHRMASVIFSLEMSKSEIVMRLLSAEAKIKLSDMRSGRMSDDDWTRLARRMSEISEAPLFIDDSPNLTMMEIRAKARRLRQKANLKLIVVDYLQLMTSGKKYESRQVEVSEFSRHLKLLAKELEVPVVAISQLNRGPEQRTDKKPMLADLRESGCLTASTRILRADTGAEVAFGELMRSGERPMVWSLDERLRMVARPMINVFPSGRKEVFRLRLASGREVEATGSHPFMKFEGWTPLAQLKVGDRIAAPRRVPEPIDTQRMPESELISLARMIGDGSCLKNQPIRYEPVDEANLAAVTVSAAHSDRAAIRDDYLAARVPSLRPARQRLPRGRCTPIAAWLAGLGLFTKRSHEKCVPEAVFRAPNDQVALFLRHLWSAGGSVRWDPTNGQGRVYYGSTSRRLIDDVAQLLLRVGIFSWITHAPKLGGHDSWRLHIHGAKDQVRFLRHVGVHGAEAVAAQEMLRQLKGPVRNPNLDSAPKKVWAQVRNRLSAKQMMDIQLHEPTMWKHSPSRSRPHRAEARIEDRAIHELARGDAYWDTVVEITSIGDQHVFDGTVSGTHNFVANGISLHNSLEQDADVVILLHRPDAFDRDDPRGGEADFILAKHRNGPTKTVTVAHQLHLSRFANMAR

Structure (SMILES)	IC50 [1]	EC50 (Protein RecA)	AC50 [2]
CCCCCCCCCCOC(=O)Cn1c(COc2cccc(OC)c2)[n+](C)c2ccccc21	10200 nM (active)	9700 nM (active)	4320 nM (active)
COc1cc(OC)c(NC2=CC(=O)C(=O)c3ccccc32)cc1Cl	2120 nM (active)		
CCc1ccc(S(=O)(=O)/N=C2\C=C(Nc3cccc(C(=O)O)c3)C(=O)c3ccccc32)cc1	7070 nM (active)	216 nM (active)	276 nM (active)
COc1cc2c(cc1OC)-c1c(OC)c(OC)cc3c1C(C2)N(C)CC3 (centres undefined)		614 nM (active)	550 nM (active)
